The text below walks through data of the Kinase Knowledgebase extract (Sharma et al. 2016).

For this assay, the target named is EGFR (Human), P00533 [T790M/L858R]. The note with it: nci-h1975.
Chain of EGFR (Human), P00533 [T790M/L858R] (P00533 whole entry T790M/L858R, looked up): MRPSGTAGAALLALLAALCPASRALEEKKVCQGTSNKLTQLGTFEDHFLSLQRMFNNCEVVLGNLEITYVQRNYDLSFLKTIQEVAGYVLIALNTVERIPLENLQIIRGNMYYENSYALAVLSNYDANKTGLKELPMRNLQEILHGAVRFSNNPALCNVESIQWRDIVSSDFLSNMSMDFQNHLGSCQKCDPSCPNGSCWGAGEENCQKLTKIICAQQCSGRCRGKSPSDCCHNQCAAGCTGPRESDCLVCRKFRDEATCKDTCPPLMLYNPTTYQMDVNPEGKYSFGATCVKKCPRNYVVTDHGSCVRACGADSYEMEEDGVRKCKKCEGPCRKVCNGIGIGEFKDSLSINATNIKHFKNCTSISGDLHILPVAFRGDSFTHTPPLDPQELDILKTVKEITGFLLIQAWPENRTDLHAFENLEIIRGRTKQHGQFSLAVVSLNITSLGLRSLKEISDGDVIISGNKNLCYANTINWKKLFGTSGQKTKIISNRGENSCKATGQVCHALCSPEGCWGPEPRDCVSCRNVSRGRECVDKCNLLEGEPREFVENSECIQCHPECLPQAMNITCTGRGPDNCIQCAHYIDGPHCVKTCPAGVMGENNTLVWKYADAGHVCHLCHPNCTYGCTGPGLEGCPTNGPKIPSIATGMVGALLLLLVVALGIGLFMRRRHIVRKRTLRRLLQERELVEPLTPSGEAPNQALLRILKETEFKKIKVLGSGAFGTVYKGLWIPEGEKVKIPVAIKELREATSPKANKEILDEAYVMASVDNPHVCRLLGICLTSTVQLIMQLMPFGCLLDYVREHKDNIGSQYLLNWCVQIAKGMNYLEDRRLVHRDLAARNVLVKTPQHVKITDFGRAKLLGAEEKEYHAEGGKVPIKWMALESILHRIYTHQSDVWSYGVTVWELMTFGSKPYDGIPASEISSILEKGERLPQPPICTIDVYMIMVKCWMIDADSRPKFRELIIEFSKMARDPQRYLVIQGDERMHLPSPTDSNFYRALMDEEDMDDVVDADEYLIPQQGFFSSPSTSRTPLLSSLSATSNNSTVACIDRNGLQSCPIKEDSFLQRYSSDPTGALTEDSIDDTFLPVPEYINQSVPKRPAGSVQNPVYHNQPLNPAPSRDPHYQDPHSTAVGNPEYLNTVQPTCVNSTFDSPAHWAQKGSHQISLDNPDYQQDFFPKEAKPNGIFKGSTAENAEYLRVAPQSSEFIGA

On to `CC(Nc1nn(C(C)C)c2cc(Nc3ccnc(-c4cnn(S(=O)(=O)C5CC5)c4)n3)ncc12)C(N)=O` (configuration not stated), for which the concentration for a half-maximal effect (EC50) – broadly, the concentration giving half of the maximal effect – worked out at 4620 nM.

The compound `CCC(C)n1nc(N2CCCC2=O)c2cnc(Nc3ccnc(N4CCC(C)(O)CC4)n3)cc21` (configuration not stated) registered an EC50 of 569 nM.

The compound `CC(C)n1nc(N2CC(C(=O)NC3CC(O)C3)C2)c2cnc(Nc3ccnc(-c4cnn(S(=O)(=O)C5CC5)c4)n3)cc21` (configuration not stated) registered an EC50 of over 10000 nM.

For the compound `CCC(C)n1nc(N2CC(C(C)O)C2)c2cnc(Nc3ccnc(-c4cnn(S(=O)(=O)C5CC5)c4)n3)cc21` (configuration not stated), the EC50 amounted to 537 nM. This lies in the sub-micromolar range.

Take `CC(n1nc(N2CC[C@@H](O)C2)c2cnc(Nc3ccnc(N4CCC(C)(O)CC4)n3)cc21)C(F)(F)F` (some centres not stated): the EC50 amounted to 901 nM.

In the case of `CC(C)n1nc(N2CCCC2)c2cnc(Nc3ccnc(-c4cnn(CC5CC5)c4)n3)cc21`, the EC50 turned out to be 1060 nM. This EC50 and that of the compound before are within 1.5-fold of each other.

The compound `CC(C)n1nc(N2CC(C(=O)N(C)C)C2)c2cnc(Nc3ccnc(N4CCC(O)C(C)(C)C4)n3)cc21` (configuration not stated) returned an EC50 of 348 nM.

For `CC(C)n1nc(N2CCC3(CNC(=O)C3)C2)c2cnc(Nc3ccnc(-c4cnn(S(=O)(=O)C5CC5)c4)n3)cc21` (configuration not stated), the EC50 worked out at 1790 nM.

For `CC(C)n1nc(N2CCC3(COC3)C2)c2cnc(Nc3ccnc(-c4cnn(S(=O)(=O)C5CC5)c4)n3)cc21`, the 50% effective concentration (EC50) was 431 nM.

On to `CC(C)n1nc(N2CC(C(=O)N3CC[C@H](CO)C3)C2)c2cnc(Nc3ccnc(-c4cnn(S(=O)(=O)C5CC5)c4)n3)cc21`, for which the EC50 amounted to 1160 nM.

As to `CC(C)n1nc(NCCS(C)(=N)=O)c2cnc(Nc3ccnc(-c4cnn(S(=O)(=O)C5CC5)c4)n3)cc21` (configuration not stated), the EC50 was over 10000 nM.

As for `CC(C)n1nc(N2CCC(C(=O)N(C)C)C2)c2cnc(Nc3ccnc(-c4cnn(S(=O)(=O)C5CC5)c4)n3)cc21` (configuration not stated), the EC50 stood at 163 nM.

`CCC(C)n1nc(N2CCN(C(=O)[C@@H](C)O)CC2)c2cnc(Nc3ccnc(-c4cnn(S(=O)(=O)C5CC5)c4)n3)cc21` (some centres not stated) registered a half-maximal effective concentration (EC50) of 1090 nM.

In turn, `CC1CN(c2nn(C(C)C)c3cc(Nc4ccnc(-c5cnn(S(=O)(=O)C6CC6)c5)n4)ncc23)C(=O)N1` (configuration not stated) came in with an EC50 of 377 nM. Against the preceding compound, the EC50 is about 2.9-fold lower.

`CC(C)n1nc(N2CC[C@@H](O)C2)c2cnc(Nc3ccnc(-c4cnn(S(=O)(=O)C5CC5)c4)n3)cc21` came in with an EC50 of 190 nM.

In turn, `CC(C)n1nc(N2CC[C@@H](C#N)C2)c2cnc(Nc3ccnc(-c4cnn(S(=O)(=O)C5CC5)c4)n3)cc21` registered an EC50 of 121 nM.

`CC(C)n1ncc2cnc(Nc3ccnc(-c4cnn(CC5CC5)c4)n3)cc21`: the EC50 was found to be 498 nM.

`CC(C)n1nc(N2CC(F)(F)C2)c2cnc(Nc3ccnc(-c4cnn(S(=O)(=O)C5CC5)c4)n3)cc21` gave an EC50 of 312 nM.

`CC(C)n1nc(N2CC[C@@H](O)C2)c2cnc(Nc3ccnc(N4CC[C@@H](O)[C@@H](F)C4)n3)cc21` registered an EC50 of 404 nM. This EC50 and that of the compound before are within 1.5-fold of each other.

Regarding `CC(C)Nc1nn(C(C)C)c2cc(Nc3ccnc(-c4cnn(S(=O)(=O)C5CC5)c4)n3)ncc12`, the EC50 was determined as 951 nM.

`CC(C)n1nc(N2CC(C(=O)NCC(F)(F)F)C2)c2cnc(Nc3ccnc(-c4cnn(S(=O)(=O)C5CC5)c4)n3)cc21` registered an EC50 of 193 nM.

`CC[C@@H](C)n1nc(N2CC[C@@H](O)C2)c2cnc(Nc3ccnc(N4CC[C@](C)(C(N)=O)C4)n3)cc21` returned an EC50 of 4050 nM.

`CCS(=O)(=O)n1cc(-c2nccc(Nc3cc4c(cn3)c(NC3CCOC3)nn4C(C)C)n2)cn1` (configuration not stated) yielded an EC50 of 272 nM. Against the preceding compound, the EC50 is about 15-fold lower.

The compound `CC(C)n1nc(N2CC[C@H](CO)C2)c2cnc(Nc3ccnc(-c4cnn(S(=O)(=O)C5CC5)c4)n3)cc21` gave an EC50 of 139 nM.

Regarding `CCC(C)n1nc(N2CC3(COC3)C2)c2cnc(Nc3ccnc(-c4cnn(S(=O)(=O)C5CC5)c4)n3)cc21` (configuration not stated), the concentration for a half-maximal effect (EC50) came out at 216 nM. This EC50 lies about 1.6-fold higher than the previous one.

In turn, `CC(C)n1nc(NC2COC2)c2cnc(Nc3ccnc(-c4cnn(S(=O)(=O)C5CC5)c4)n3)cc21` displayed an EC50 of 167 nM.

`CCC(C)n1nc(N2CCCC2=O)c2cnc(Nc3ccnc(N4CC[C@@H](O)[C@@H](F)C4)n3)cc21` (some centres not stated): the EC50 was 300 nM.

For `CC(C)n1nc(N2CCC2)c2cnc(Nc3ccnc(-c4cnn(S(=O)(=O)C5CC5)c4)n3)cc21`, the half-maximal effective concentration (EC50) turned out to be 158 nM.

With `CC(C)n1nc(N2CC(C(C)(C)C#N)C2)c2cnc(Nc3ccnc(-c4cnn(S(=O)(=O)C5CC5)c4)n3)cc21`, the EC50 amounted to 1380 nM.

Regarding `CCN1CCN(c2nn(C(C)C)c3cc(Nc4ccnc(-c5cnn(S(=O)(=O)C6CC6)c5)n4)ncc23)C1=O`, the EC50 turned out to be 929 nM.

For `CC(C)n1nc(N2CC(C(=O)N3CC[C@@H](O)C3)C2)c2cnc(Nc3ccnc(-c4cnn(S(=O)(=O)C5CC5)c4)n3)cc21`, the EC50 amounted to 2520 nM.

`CCC(C)n1nc(N2CCNC2=O)c2cnc(Nc3ccnc(N4CC[C@H](O)[C@H](F)C4)n3)cc21` (some centres not stated) yielded an EC50 of 208 nM.

On to `CC(C)n1nc(N2CC3(C2)C[S+]([O-])C3)c2cnc(Nc3ccnc(N4CCC(C)(O)CC4)n3)cc21`, for which the EC50 is 3910 nM.

Take `CC(C)n1nc(NC2CCS(=O)(=O)C2)c2cnc(Nc3ccnc(-c4cnn(S(=O)(=O)C5CC5)c4)n3)cc21` (configuration not stated): the EC50 came to 1640 nM.

Take `CC(C)c1nn(C(C)C)c2cc(Nc3ccnc(-c4cnn(S(=O)(=O)C5CC5)c4)n3)ncc12`: the EC50 stood at 3700 nM.

In the case of `CC(C)n1nc(NCCC2OCC(N)CO2)c2cnc(Nc3ccnc(N4CCC(C)(O)CC4)n3)cc21` (configuration not stated), the EC50 is over 10000 nM.

`CC(C)n1nc(N2CC(C#N)C2)c2cnc(Nc3ccnc(-c4cnn(S(=O)(=O)C5CC5)c4)n3)cc21`: the EC50 was 144 nM.

Turning to `CC(C)n1nc(NC2CCOCC2)c2cnc(Nc3ccnc(-c4cnn(S(=O)(=O)C5CC5)c4)n3)cc21`, the EC50 turned out to be 1110 nM. Compared with the last compound, the EC50 is about 7.7-fold higher.

Compound `CC(O)C1CN(c2nn(C(C)C)c3cc(Nc4ccnc(-c5cnn(S(=O)(=O)C6CC6)c5)n4)ncc23)C1` (configuration not stated) registered an EC50 of 266 nM.

`CC(C)n1nc(N2CCOCC2)c2cnc(Nc3ccnc(-c4cnn(CC5CC5)c4)n3)cc21`: the concentration for a half-maximal effect (EC50) is 1840 nM.

`CC(C)n1nc(N2CCN=C2O)c2cnc(Nc3ccnc(-c4cnn(S(=O)(=O)C5CC5)c4)n3)cc21` came in with an EC50 of 237 nM.

For `CC(C)n1nc(C2CCOC2)c2cnc(Nc3ccnc(-c4cnn(S(=O)(=O)C5CC5)c4)n3)cc21` (configuration not stated), the EC50 amounted to 1460 nM. This EC50 is about 6.2-fold higher than that of the compound before.

`CC(C)n1nc(NC(=O)C(C)(C)O)c2cnc(Nc3ccnc(-c4cnn(S(=O)(=O)C5CC5)c4)n3)cc21` displayed an EC50 of 2080 nM.

`CCC(C)n1nc(N2CC[C@@H](C(N)=O)C2)c2cnc(Nc3ccnc(N4CCC(C)(O)CC4)n3)cc21` (some centres not stated) gave an EC50 of 7170 nM.

For the compound `CC(C)n1nc(N2CCOC(CO)C2)c2cnc(Nc3ccnc(-c4cnn(S(=O)(=O)C5CC5)c4)n3)cc21` (configuration not stated), the half-maximal effective concentration (EC50) turned out to be 241 nM.

For `CC(C)n1nc(N2CC(C(=O)N3CCOCC3)C2)c2cnc(Nc3ccnc(-c4cnn(S(=O)(=O)C5CC5)c4)n3)cc21`, the EC50 turned out to be 344 nM.

On to `CC(C)n1nc(N2CC3(COC3)C2)c2cnc(Nc3ccnc(N4CCC(O)C(C)(C)C4)n3)cc21` (configuration not stated), for which the EC50 was found to be 159 nM.

On to `CC(C)n1nc(N2CC(C(N)=O)C2)c2cnc(Nc3ccnc(-c4cnn(S(=O)(=O)C5CC5)c4)n3)cc21`, for which the EC50 came out at 938 nM.

On to `CC(C)n1nc(N2CCNC(=O)C2)c2cnc(Nc3ccnc(-c4cnn(S(=O)(=O)C5CC5)c4)n3)cc21`, for which the EC50 worked out at 738 nM.

In the case of `CC(C)n1nc(NCCC(N)=O)c2cnc(Nc3ccnc(-c4cnn(S(=O)(=O)C5CC5)c4)n3)cc21`, the EC50 was found to be 3970 nM. This EC50 lies about 5.4-fold higher than the previous one.

Regarding `CC(C)n1nc(N2CC3(CN(CC(F)(F)F)C3)C2)c2cnc(Nc3ccnc(-c4cnn(S(=O)(=O)C5CC5)c4)n3)cc21`, the EC50 is 1140 nM. Against the preceding compound, the EC50 is about 3.5-fold lower.

Take `CC(C)n1nc(NCC(N)=O)c2cnc(Nc3ccnc(-c4cnn(S(=O)(=O)C5CC5)c4)n3)cc21`: the EC50 is 5440 nM.
